Test results taken from US8722723B2, “Aromatic amide derivative” (Research Foundation Itsuu Laboratory, priority 2008, dated 2014).

Columns and labels:
luciferase (Luc) = test: Reporter assay: Hela cells transfected with human RORα1 expression vector and luciferase (Luc) reporter vector; Luc activity corrected with β-Gal activity; format: cell-based, firefly; set-up: key: β-Gal-corrected Luc activity; smaller = inhibition, larger = promotion; details: human RORα1 expression vector, rev-DR2/TK-Luc reporter, about 1 day, smaller number = inhibitory, larger = promoting
Protocol: The reporter assay was used, in which Hela cells transfected with each of a pcDNA3 vector incorporated with the human RORα1 so that the gene can be expressed in animal cells as an expression vector, and a pGL3 promoter vector of which SV40 promoter was replaced with TK promoter as a luciferase expression reporter vector were used.
The Hela cells were placed at a density of 2×10^4 cells/0.1 mL/well on a 96-well cell culture plate (FALCON) by using 10% FBS-DMEM. On the next day, the human RORα1 expression vector, the reporter vector incorporated with 3 copies of rev-DR2 sequences and the HSV thymidine kinase promoter at a position upstream from the luciferase (Luc) gene, and a β-galactosidase (β-Gal) expression vector for control were introduced into the cells by using a transfection reagent (Fugene6, Roche). On the next day, the medium was replaced with 5% FBS-DMEM containing a test compound diluted at a prescribed concentration, after about 1 day, the cell supernatant was removed, then the cells were lysed (Passive Lysis buffer, Promega), the Luc substrate (PicaGene, Toyo Ink) was added to a part of the lysed cells, and the activity of produced Luc was measured as luminescence intensity. Further, the β-Gal activity was measured as intensity of fluorescence generated when 4-methylumbelliferyl β-D-galactoside was added as a substrate, and the activity of Luc corrected for the transfection efficiency with the β-Gal activity was used as the index for evaluation. A smaller number indicates inhibitory action, and a larger number indicates promoting action.

CN(C)c1ccc2c(c1)C(=O)N(c1ccc(CCCC(=O)O)cc1)C2 [Compound 18, 4-[4-(6-dimethylamino-1-oxo-1,3-dihydro-isoindol-2-yl)-phenyl]-butyric acid]
melting point: 186 to 187 °C
activity of Luc corrected for the transfection efficiency with the β-Gal activity (luciferase (Luc); test compound 0.01 μM): 0.1
activity of Luc corrected for the transfection efficiency with the β-Gal activity (luciferase (Luc); test compound 0.1 μM): 0
activity of Luc corrected for the transfection efficiency with the β-Gal activity (luciferase (Luc); test compound 1 μM): 0.0
activity of Luc corrected for the transfection efficiency with the β-Gal activity (luciferase (Luc); test compound 10 μM): 0.0

CCOC(=O)C=Cc1ccc(N2Cc3ccccc3C2=O)cc1 [Compound 23, 3-[4-(1-oxo-1,3-dihydro-isoindol-2-yl)-phenyl]-acrylic acid ethyl ester]
melting point: 184 to 185 °C
activity of Luc corrected for the transfection efficiency with the β-Gal activity (luciferase (Luc); test compound 0.01 μM): 0.8
activity of Luc corrected for the transfection efficiency with the β-Gal activity (luciferase (Luc); test compound 0.1 μM): 0.9
activity of Luc corrected for the transfection efficiency with the β-Gal activity (luciferase (Luc); test compound 1 μM): 0.6
activity of Luc corrected for the transfection efficiency with the β-Gal activity (luciferase (Luc); test compound 10 μM): 0.5

CN(C)c1ccc2c(c1)C(=O)N(c1ccc(OCC(=O)O)cc1)C2 [Compound 28, [4-(6-dimethylamino-1-oxo-1,3-dihydro-isoindol-2-yl)-phenoxy]-acetic acid]
melting point: 206 to 208 °C
activity of Luc corrected for the transfection efficiency with the β-Gal activity (luciferase (Luc); test compound 0.01 μM): 1.1
activity of Luc corrected for the transfection efficiency with the β-Gal activity (luciferase (Luc); test compound 0.1 μM): 0.8
activity of Luc corrected for the transfection efficiency with the β-Gal activity (luciferase (Luc); test compound 1 μM): 0.2
activity of Luc corrected for the transfection efficiency with the β-Gal activity (luciferase (Luc); test compound 10 μM): 0.1

O=C(O)CCCc1ccc(N2Cc3ccc(F)cc3C2=O)cc1 [Compound 29, 4-[4-(6-fluoro-1-oxo-1,3-dihydro-isoindol-2-yl)-phenyl]-butyric acid]
melting point: 172 to 173 °C
activity of Luc corrected for the transfection efficiency with the β-Gal activity (luciferase (Luc); test compound 0.01 μM): 0.5
activity of Luc corrected for the transfection efficiency with the β-Gal activity (luciferase (Luc); test compound 0.1 μM): 0.2
activity of Luc corrected for the transfection efficiency with the β-Gal activity (luciferase (Luc); test compound 1 μM): 0.0
activity of Luc corrected for the transfection efficiency with the β-Gal activity (luciferase (Luc); test compound 10 μM): 0.0

Cc1ccc([N+](=O)[O-])c(C(=O)Nc2ccc(CCCC(=O)O)cc2)c1 [Compound 40, 4-[4-(5-methyl-2-nitro-benzoylamino)-phenyl]-butyric acid]
melting point: 152 to 153 °C
activity of Luc corrected for the transfection efficiency with the β-Gal activity (luciferase (Luc); test compound 0.01 μM): 0.8
activity of Luc corrected for the transfection efficiency with the β-Gal activity (luciferase (Luc); test compound 0.1 μM): 0.9
activity of Luc corrected for the transfection efficiency with the β-Gal activity (luciferase (Luc); test compound 1 μM): 0.8
activity of Luc corrected for the transfection efficiency with the β-Gal activity (luciferase (Luc); test compound 10 μM): 0.8
